Measured values: the supplement of paper PMC10307832

How the values were obtained:
Assay in all cases: relative viability (nuclei count vs DMSO), 5 days (fraction); higher = more cells survive
RU-SKI 43 + Navitoclax = compound: CC[C@@H](C)CNCC(=O)N1CCC2=C([C@@H]1COC3=CC=CC(=C3)C)C=CS2 [RU-SKI 43] + CC1(C)CCC(c2ccc(Cl)cc2)=C(CN2CCN(c3ccc(C(=O)NS(=O)(=O)c4ccc(N[C@H](CCN5CCOCC5)CSc5ccccc5)c(S(=O)(=O)C(F)(F)F)c4)cc3)CC2)C1 [Navitoclax] (partner 0.5 µM)
Outline: (§1)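 After 5 days of treatment, lung cancer cells in 1536-well plates were fixed and stained in a single step (final 0.05% Triton X-100, 1% formaldehyde, 1 ug/ml Hoechst) and their nuclei counted on 4× images. Treatment had been applied by pin tool the day after seeding as one drug alone or as a fixed anchor-drug dose with five library-drug doses (not always all listed) in √10 steps. Relative viability is the nuclei count of treated wells divided by that of vehicle wells, and values are medians of duplicate plates.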

RU-SKI 43 + Vorinostat = compound: CC[C@@H](C)CNCC(=O)N1CCC2=C([C@@H]1COC3=CC=CC(=C3)C)C=CS2 [RU-SKI 43] + O=C(CCCCCCC(=O)Nc1ccccc1)NO [Vorinostat] (partner 1 µM)
Outline: as §1

Irinotecan + Vorinostat = compound: CCc1c2c(nc3ccc(OC(=O)N4CCC(N5CCCCC5)CC4)cc13)-c1cc3c(c(=O)n1C2)COC(=O)[C@]3(O)CC [Irinotecan] + O=C(CCCCCCC(=O)Nc1ccccc1)NO [Vorinostat] (partner 1 µM)
Outline: as §1

Cell Line | relative viability (RU-SKI 43 + Navitoclax; first compound 0.1 µM) | relative viability (RU-SKI 43 + Navitoclax; first compound 0.3162 µM) | relative viability (RU-SKI 43 + Navitoclax; first compound 1 µM) | relative viability (RU-SKI 43 + Navitoclax; first compound 3.162 µM) | relative viability (RU-SKI 43 + Navitoclax; first compound 10 µM) | relative viability (RU-SKI 43 + Vorinostat; first compound 0.1 µM) | relative viability (RU-SKI 43 + Vorinostat; first compound 0.3162 µM) | relative viability (RU-SKI 43 + Vorinostat; first compound 1 µM) | relative viability (RU-SKI 43 + Vorinostat; first compound 3.162 µM) | relative viability (RU-SKI 43 + Vorinostat; first compound 10 µM) | relative viability (Irinotecan + Vorinostat; first compound 0.6325 µM) | relative viability (Irinotecan + Vorinostat; first compound 2 µM) | relative viability (Irinotecan + Vorinostat; first compound 6.325 µM) | relative viability (Irinotecan + Vorinostat; first compound 20 µM)
NCI-H1666 | 0.9 | 1.08 | 0.888 | 0.852 | 0.848 | 0.953 | 1.08 | 1.13 | 0.997 | 0.799 | 0.849 | 0.706 | 0.788 | 0.631
NCI-H1734 | 0.867 | 1.49 | 0.911 | 0.899 | 0.803 | 0.821 | 0.833 | 0.81 | 0.852 | 0.701 | – | 0.522 | 0.195 | 0.175
NCI-H1755 | 1.04 | 1.14 | 1.06 | 1.06 | 1.05 | 0.746 | 0.862 | 0.848 | 0.809 | 0.859 | 0.606 | 0.7 | 0.448 | 0.385
NCI-H1793 | 0.458 | 0.417 | 0.425 | 0.511 | 0.318 | 0.799 | 0.742 | 0.872 | 0.792 | 0.602 | – | 0.633 | 0.372 | 0.244
NCI-H1915 | 0.776 | 0.83 | 0.8 | 0.821 | 0.78 | 0.563 | 0.602 | 0.639 | 0.54 | 0.549 | 0.307 | 0.329 | 0.168 | 0.147
NCI-H1944 | 1.02 | 1.05 | 1.12 | 1.02 | 0.938 | 0.548 | 0.623 | 0.522 | 0.499 | 0.513 | 0.386 | 0.36 | 0.223 | 0.166
NCI-H1975 | 1.06 | 1.45 | 1.07 | 1.07 | 1.07 | 0.736 | 0.781 | 0.749 | 0.723 | 0.618 | 0.714 | 0.708 | 0.378 | 0.269
NCI-H1993 | 0.932 | 0.91 | 0.982 | 1.05 | 1.02 | 0.717 | 0.969 | 0.769 | 1.08 | 0.659 | – | 0.529 | 0.584 | 0.612
NCI-H2009 | 1.11 | 1.21 | 1.17 | 1.15 | 1.1 | 0.692 | 0.757 | 0.751 | 0.693 | 0.679 | 0.589 | 0.379 | 0.236 | 0.135
NCI-H2023 | 1.01 | 1.3 | 1.08 | 1.09 | 0.977 | 0.742 | 0.918 | 0.772 | 0.815 | 0.602 | 0.365 | 0.451 | 0.204 | 0.0592
NCI-H2085 | 1.17 | 1.11 | 1.2 | 1.08 | 1.12 | 0.705 | 0.659 | 0.808 | 0.793 | 0.726 | 0.753 | 0.756 | 0.583 | 0.564
NCI-H2087 | 1.05 | 0.94 | 0.943 | 0.911 | 0.998 | 0.818 | 1.02 | 0.985 | 0.789 | 0.57 | 0.235 | 0.215 | 0.165 | 0.16
NCI-H2126 | 0.776 | 0.863 | 0.875 | 0.875 | 0.862 | 0.793 | 0.864 | 0.819 | 0.906 | 0.781 | 0.4 | 0.616 | 0.335 | 0.292
NCI-H2170 | 0.499 | 0.64 | 0.643 | 0.625 | 0.58 | 0.831 | 1.06 | 0.763 | 0.843 | 0.889 | 0.864 | 0.753 | 0.327 | 0.102
NCI-H2228 | 0.91 | 1.3 | 0.995 | 1.25 | 0.987 | 0.603 | 0.928 | 0.828 | 0.727 | 0.596 | 0.567 | 0.592 | 0.435 | 0.433
NCI-H2347 | 0.718 | 0.836 | 0.904 | 0.424 | 0.7 | 0.511 | 0.621 | 0.674 | 0.595 | 0.566 | 0.435 | 0.631 | 0.514 | 0.548
NCI-H2405 | 0.797 | 0.867 | 0.627 | 0.74 | 0.711 | 1.1 | 1.11 | 1.18 | 1.02 | 1 | – | 0.956 | 0.307 | 0.195
NCI-H3122 | 1.03 | 1 | 0.995 | 0.97 | 0.98 | 1.06 | 1.36 | 1.04 | 0.467 | 1.06 | 0.924 | 0.447 | 0.199 | 0.146
PC-3 [JPC-3] | 0.74 | 0.748 | 0.783 | 0.792 | 0.779 | 0.947 | 0.727 | 0.982 | 0.651 | 0.876 | 0.625 | 0.914 | 0.411 | 0.419
PC-14 | 0.962 | 1.3 | 1.08 | 0.985 | 0.957 | 0.661 | 0.69 | 0.739 | 0.86 | 0.585 | 0.477 | 0.392 | 0.217 | 0.102
RERF-LC-KJ | 1.07 | 1.29 | 1.09 | 1.21 | 0.9 | 0.695 | 0.699 | 0.654 | 0.702 | 0.546 | 0.462 | 0.586 | 0.48 | 0.271
SK-LU-1 | 0.789 | 0.817 | 0.841 | 0.831 | 1.03 | 0.738 | 0.893 | 0.882 | 0.795 | 0.775 | 0.435 | 0.431 | 0.45 | 0.313
SK-MES-1 | 1.31 | 1.55 | 1.33 | 1.25 | 1.12 | 1.15 | 1.45 | 1.28 | 1.21 | 1.1 | 0.821 | 0.756 | 0.372 | 0.193
SW 1573 | 0.993 | 0.93 | 0.898 | 1.03 | 0.721 | 0.746 | 0.997 | 0.963 | 0.934 | 0.767 | – | 0.605 | 0.209 | 0.0706
